Measurements taken from US10457687B2, “Aminoacid derivatives, a process for their preparation and pharmaceutical compositions containing them” (LES LABORATOIRES SERVIER, priority 2015, dated 2019).

Columns and labels:
[1] = target: Mcl-1 protein (Homo sapiens, UniProt Q07820); experiment: Inhibition of Mcl-1 by the fluorescence polarisation technique (Method 1 or Method 2); assay type: binding; settings: fluorescence polarisation, Fluorescein labelled ligand; Method 1 (not underlined) or Method 2 (underlined); read-out: IC50 (μM) Mcl-1 FP
Outline: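 Binding measured by FP, with Mcl-1 protein and fluorescein-labelled ligand mixed with compounds in an 11-point series at 5% final DMSO. Method 2 used 10 nM each of protein and ligand in phosphate buffer (20 mM Na2HPO4, 1 mM EDTA, 50 mM NaCl, pH 7.4); Method 1 used 5 nM protein, 1 nM ligand in HEPES buffer (10 mM HEPES, 150 mM NaCl, 0.05% Tween 20, pH 7.4).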

[2] = tested on: H929 multiple myeloma tumour line; experiment: In vitro cytotoxicity, MTT assay, 48 hours; assay type: cell-based; settings: Homo sapiens, NCI-H929; H929 cells, 48 hours exposure, cell viability
Method: The cytotoxicity studies were carried out on the H929 multiple myeloma tumour line.
The cells are distributed onto microplates and exposed to the test compounds for 48 hours.

[3] = tested on: cleaved form of PARP in AMO-1 tumour cells; experiment: Quantification of the cleaved form of PARP in vivo (AMO-1 xenograft, MSD ELISA); parameters: species or system mice (SCID strain); settings: activation factor: cleaved PARP in treated mice / control mice, SCID mice, intraveinous or oral routes
Method: The ability of the compounds of the invention to induce apoptosis, by measuring cleaved PARP levels, is evaluated in a xenograft model of AMO-1 multiple myeloma cells. 1·10^7 AMO-1 cells are grafted sub-cutaneously into immunosuppressed mice (SCID strain). 12 to 14 days after the graft, the animals are treated by intraveinous or oral routes with the various compounds. After treatment, the tumour masses are recovered and lysed, and the cleaved form of PARP is quantified in the tumour lysates.
The quantification is carried out using the “Meso Scale Discovery (MSD) ELISA platform” test, which specifically assays the cleaved form of PARP. It is expressed in the form of an activation factor corresponding to the ratio between the quantity of cleaved PARP in the treated mice divided by the quantity of cleaved PARP in the control mice.

Chain of Mcl-1 protein (Q07820 whole entry): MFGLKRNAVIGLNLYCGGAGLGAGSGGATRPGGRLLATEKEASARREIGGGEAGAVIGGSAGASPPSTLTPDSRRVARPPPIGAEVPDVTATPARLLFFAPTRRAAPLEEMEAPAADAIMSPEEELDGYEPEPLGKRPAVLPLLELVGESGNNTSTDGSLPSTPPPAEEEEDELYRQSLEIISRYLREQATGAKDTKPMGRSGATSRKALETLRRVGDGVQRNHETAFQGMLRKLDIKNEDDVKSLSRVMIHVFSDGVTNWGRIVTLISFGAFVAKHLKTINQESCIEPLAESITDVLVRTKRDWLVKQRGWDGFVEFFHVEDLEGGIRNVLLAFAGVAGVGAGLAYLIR

SMILES	IC50 [1]	IC50 [2]	PARP fold [3]
CCOC(=O)C(Cc1ccccc1OCc1ccnc(-c2ccccc2OC)n1)Nc1ncnc2sc(-c3ccc(F)cc3)c(-c3ccc(OCCN4CCN(C)CC4)c(Cl)c3C)c12 [Example 256, ethyl N-[(5Sa)-5-{3-chloro-2-methyl-4-[2-(4-methylpiperazin-1-yl)ethoxy]phenyl}-6-(4-fluorophenyl)thieno[2,3-d]pyrimidin-4-yl]-2-{[2-(2-methoxyphenyl)pyrimidin-4-yl]methoxy}-D-phenylalaninate]	1.61 µM	> 0.6 µM	99.5
CC#Cc1sc2ncnc(NC(Cc3ccccc3OCc3ccnc(-c4ccccc4OC)n3)C(=O)OCC)c2c1-c1ccc(OCCN2CCN(C)CC2)c(Cl)c1C [Example 258, ethyl N-[(5Sa)-5-{3-chloro-2-methyl-4-[2-(4-methylpiperazin-1-yl)ethoxy]phenyl}-6-(prop-1-yn-1-yl)thieno[2,3-d]pyrimidin-4-yl]-2-{[2-(2-methoxyphenyl)pyrimidin-4-yl]methoxy}-D-phenylalaninate]	1.07 µM	0.428 µM	132.3
CC#Cc1sc2ncnc(NC(Cc3ccccc3OCc3ccnc(-c4ccccc4OC)n3)C(=O)OCC)c2c1-c1ccc(OCCN(C)C)c(Cl)c1C [Example 259, ethyl N-[(5Sa)-5-{3-chloro-4-[2-(dimethylamino)ethoxy]-2-methylphenyl}-6-(prop-1-yn-1-yl)thieno[2,3-d]pyrimidin-4-yl]-2-{[2-(2-methoxyphenyl)pyrimidin-4-yl]methoxy}-D-phenylalaninate]	1.35 µM	> 0.6 µM	134.4
